Assay results as given in patent US7855189B2, “N-phenylphosphoric acid triamides, method for the production thereof and their use as agents for regulating or inhibiting enzymatic urea hydrolysis” (SKW Stickstoffwerke Piesteritz GmbH, priority 2004, dated 2010).
Marks after values point to notes of the source that are not given here.

Tested on: urease
Test: Testing for urease-inhibiting effect in soil (NH3-N release from urea)
Assay type: biochemical
Settings: 30 g soil at 40% of max water capacity, 50 mg urea
Method: 30 g soil set to 40% of the maximum water capacity are added with 1 ml urea solution corresponding to 50 mg urea. At the same time the active substance is applied, preferably dissolved in the urea solution. The concentration details for the individual tested active substances given in the following table relate to the quantity of carbamide nitrogen used in the test. The soil, on the surface of which the urea solution (with and without the active substance) is applied is located in an airtight sealed container into which a receiver is inserted at the same time which collects the ammonia released from the urea as ammonium. By rinsing the receiver daily and analysing the NH4—N quantities contained, the NH3—N-release from the urea is determined.
From the summation of the ammonium quantities in the receiver, the percentage inhibition of the urea hydrolysis dependently upon time is calculated and from these values the t50 value is determined mathematically.
The t50 value is understood to be the time in days since the start of the test at which the urea hydrolysis inhibition is still 50%.

| SMILES | urease inhibition t50 value (time in days at which the urea hydrolysis inhibition is still 50%) (conc. 0.5 % HS-N-related (in relation to urea nitrogen used)) [days] | urease inhibition t50 value (time in days at which the urea hydrolysis inhibition is still 50%) (conc. 0.05 % HS-N-related (in relation to urea nitrogen used)) |
| --- | --- | --- |
| Cc1cccc(NP(N)(N)=O)c1 [Compound 2, N-(3-methylphenyl)phosphoric acid triamide] | 11.2 |  |
| NP(N)(=O)Nc1ccccc1[N+](=O)[O-] [Compound 1, N-(2-nitrophenyl)phosphoric acid triamide] |  | >25^b) d |
